Data: the NIST ThermoML archive (doi:10.1021/acs.jced.7b00503)

Assay: wn = mass fraction of the nth substance listed
Conditions: Pendant drop shape

[Br-].[K+] [potassium bromide] + O
surface tension liquid-gas [mN/m]
Conditions | w1 = 0.05 | w1 = 0.1 | w1 = 0.15 | w1 = 0.2 | w1 = 0.25 | w1 = 0.3 | w1 = 0.35 | w1 = 0.4
293.15 K | 73.93 | 74.51 | 74.9 | 75.3 | 76.16 | 77.43 | 78.85 | 80.3
303.15 K | 72.42 | 73.05 | 73.27 | 73.82 | 74.82 | 76.15 | 77.51 | 78.92
313.15 K | 70.85 | 71.44 | 71.74 | 72.29 | 73.39 | 74.72 | 76.17 | 77.58
323.15 K | 69.14 | 69.86 | 70.21 | 70.82 | 71.86 | 73.23 | 74.64 | 76.06
333.15 K | 67.31 | 67.95 | 68.49 | 69.25 | 70.24 | 71.64 | 73.11 | 74.53
343.15 K | 65.4 | 66.14 | 66.77 | 67.46 | 68.61 | 69.93 | 71.39 | 72.87
353.15 K | 63.44 | 64.11 | 64.86 | 65.73 | 66.79 | 68.15 | 69.57 | 71.22

[Cl-].[K+] [potassium chloride] + O
surface tension liquid-gas [mN/m]
Conditions | w1 = 0.025 | w1 = 0.05 | w1 = 0.075 | w1 = 0.1 | w1 = 0.125 | w1 = 0.15 | w1 = 0.175 | w1 = 0.2
293.15 K | 73.32 | 73.89 | 74.52 | 75.13 | 75.61 | 76.15 | 77.1 | 77.99
303.15 K | 71.83 | 72.44 | 73.09 | 73.68 | 74.44 | 75.18 | 75.74 | 76.32
313.15 K | 70.27 | 71.05 | 71.66 | 72.24 | 72.88 | 73.56 | 74.18 | 74.82
323.15 K | 68.58 | 69.17 | 69.84 | 70.49 | 71.12 | 71.74 | 72.36 | 73
333.15 K | 66.95 | 67.7 | 68.21 | 68.76 | 69.37 | 69.83 | 70.47 | 71.1
343.15 K | 65 | 65.55 | 66.46 | 67.35 | 67.94 | 68.47 | 69.17 | 69.81
353.15 K | 63.25 | 63.91 | 64.64 | 65.37 | 66.05 | 66.73 | 67.35 | 68.12
